In the NIST ThermoML archive (doi:10.1016/j.jct.2007.05.010):

Assays:
[1] = 298.15 K, 101 kPa, Liquid; for speed of sound: Sing-around technique in a fixed-path interferometer
[2] = mn = molality of the nth substance listed, in mol/kg; details: 298.15 K, 101 kPa, Liquid; for speed of sound: Sing-around technique in a fixed-path interferometer

CC(O)CO (stereo not given) [1,2-propanediol]
[1]
Details	mass density [kg/m3]	speed of sound [m/s]
–	1032.87	1510.6

CC(O)CO (stereo not given) [1,2-propanediol] + O
[2]
Details	mass density [kg/m3]	speed of sound [m/s]
m2 = 0	1032.87	1510.6
m2 = 0.2187	1033.12	1512.9
m2 = 0.5592	1033.53	1516.4
m2 = 0.6141	1033.58	1516.5
m2 = 0.7341	1033.67	1517.5
m2 = 0.8421	1033.73	1519.4
m2 = 0.9215	1033.86	1519.9
m2 = 1.023	1033.94	1521.5

CC1COC(=O)O1 (stereo not given) [4-methyl-1,3-dioxolan-2-one] + O
[2]
Details	mass density [kg/m3]	speed of sound [m/s]
m2 = 0	1198.64	1443.4
m2 = 0.2538	1197.46	1444.9
m2 = 0.2969	1197.24	1445.2
m2 = 0.3438	1196.97	1445.4
m2 = 0.3895	1196.74	1445.6
m2 = 0.4879	1196.22	1446
m2 = 0.5765	1195.77	1446.6
m2 = 0.6743	1195.27	1447.2
m2 = 0.7678	1194.8	1447.6

CC1COC(=O)O1 (stereo not given) [4-methyl-1,3-dioxolan-2-one]
[1]
Details	mass density [kg/m3]	speed of sound [m/s]
–	1198.64	1443.4

OCCO [1,2-ethanediol]
[1]
Details	mass density [kg/m3]	speed of sound [m/s]
–	1109.41	1656.1

OCCO [1,2-ethanediol] + O
[2]
Details	mass density [kg/m3]	speed of sound [m/s]
m2 = 0	1109.41	1656.1
m2 = 0.1028	1109.35	1656.9
m2 = 0.2175	1109.25	1657.7
m2 = 0.3155	1109.22	1658.6
m2 = 0.3759	1109.06	1658.7
m2 = 0.7031	1108.82	1660.5
m2 = 0.808	1108.62	1661.4
m2 = 0.9282	1108.2	1661.8
m2 = 1.035	1108.14	1662.3
m2 = 1.132	1108.1	1662.7
